Each structure is given as a SMILES string.

Assay [1] has as its system thermostable β-xylosidase OJ1M-273-1 (GH3 family), SEQ ID NO: 2, from hot spring soil metagenome OJ1, expressed in E. coli, purified. The assay can be described thus: Kinetics of PNP substrate hydrolysis by OJ1M-273-1 β-xylosidase. The note with it: 105° C., pH 5 acetate buffer; for Vmax (maximum initial rate of hydrolysis) / Km: 10 min, enzyme diluted to 0.01 mg/mL, Michaelis-Menten fit; for Km: read-out: Km (Michaelis constant); for Kcat/Km (catalytic efficiency): calculated from fitted Vmax and Km. It is filed as biochemical. Here is the method: The gene recombinant E. coli homogeneous supernatant was loaded onto an ion exchange column HiTrap Q HP (manufactured by GE Healthcare, Inc.) equilibrated with a 50 mM Tris-HCl buffer (pH 8.0), and a medium-high pressure liquid chromatography system AKTA design (manufactured by GE Healthcare, Inc.) was used to fractionate proteins with a concentration gradient of 0 to 50% in a 50 mM Tris-HCl buffer (pH 8.0) containing 1 M of NaCl. […] The fractions with β-xylosidase activity following the buffer exchange were loaded onto a hydrophobic interaction separation column HiTrap Phenyl HP (manufactured by GE Healthcare, Inc.) equilibrated with the same buffer solution, and the proteins were fractionated with a concentration gradient of 0 to 100% in a 50 mM Tris-HCl buffer (pH 8.0). […] The concentrated sample was loaded onto a gel filtration column Hiload 26/60 superdex 200 pg (manufactured by GE Healthcare, Inc.) equilibrated with a 50 mM Tris-HCl buffer (pH 8.0) containing 150 mM of NaCl, and was fractionated by passing a volume of the same buffer equivalent to 1 to 1.5 times the column volume through the column at a flow rate of 2 to 3 mL/min.
PNPX was used as the substrate for measuring the β-xylosidase activity. A solution prepared by dissolving PNPX (manufactured by Sigma-Aldrich Co. LLC.) in water to obtain a prescribed final concentration was used as the substrate solution. The PNPX substrate solutions used in the experiments described below all used aqueous solutions of PNPX prepared by the above method. In the measurements, a solution prepared by diluting the purified enzyme obtained in section <6> above with a 0.05 M Tris-HCl buffer (pH 8.0) to obtain a concentration of 0.1 to 0.01 mg/mL was used.
The reaction solution was composed of 6 μL of the diluted purified enzyme, 294 μL of purified water, 150 μL of a 200 mM acetate buffer (pH 5), and 150 μL of a 20 mM PNPX aqueous solution.
The reaction was performed at 60° C. to 115° C. for 10 minutes using a ReactiTherm (manufactured by Thermo Fisher Scientific Inc.). A glass vial with a volume of 1.5 mL was used as the reaction vessel, and the inside of the vial was pre-coated with a 1.5% by mass aqueous solution of BSA in order to suppress enzyme protein adsorption. In all measurements, a mixed solution prepared by replacing the gene recombinant E. coli homogenous supernatant or the purified enzyme with a 50 mM Tris-HCl buffer (pH 8.0) and then reacting the solution under the same conditions was used as a control. Further, the mixed solution containing the enzyme (the gene recombinant E. coli homogenous supernatant or the purified enzyme), the purified water and the buffer was held at the reaction temperature for five minutes (pre-incubation), the substrate solution was then added, and the reaction was performed. In each case, following completion of the 10-minute reaction, the reaction was halted by adding a 0.2 M Na2CO3 solution to the reaction solution in a volume equal to that of the mixed solution, and the resulting mixture was then centrifuged for 5 minutes to obtain a supernatant. The amount of p-nitrophenol in the supernatant was determined by measuring the absorbance at 420 nm using a spectrophotometer, calculating the amount of p-nitrophenol in the supernatant using a calibration curve prepared with p-nitrophenol, and then determining the amount of p-nitrophenol produced by the enzymatic hydrolysis on the basis of the difference from the control. The enzymatic activity for producing 1 μmol of p-nitrophenol per minute was defined as 1 U, and the value obtained by dividing this activity by the amount of protein was defined as the specific activity (U/mg). Each measurement was performed for three independent experiments, and a mean value and a standard error were determined.
The maximum initial rate (Vmax) of hydrolysis, the Michaelis constant (Km) and the catalytic efficiency (Kcat/Km) were investigated for PNP substrate hydrolysis by OJ1M-273-1. […]

For assay [2], the system named is thermostable 1-xylosidase having an optimum temperature of 95° C. (Non-Patent Document 7, Shi et al., 2013). As to conditions: PNPX as substrate; cited from earlier work.

The term Km denotes the substrate concentration at which the rate is half of its maximum. For the molecule `O=[N+]([O-])c1ccc(O[C@@H]2O[C@@H](CO)[C@H](O)[C@H]2O)cc1` [PNPAF, p-nitrophenyl-α-L-arabinofuranoside], in assay [1], the “Vmax (maximum initial rate of hydrolysis)” value (shortened to “Vmax”) is 914.5 U/mg, the Michaelis constant (Km) is 13.7 mM and the “Kcat/Km (catalytic efficiency)” value is 87.7 mM⁻¹ s⁻¹.
`O=[N+]([O-])c1ccc(O[C@@H]2OC[C@H](O)[C@H](O)[C@H]2O)cc1` [PNPAP, p-nitrophenyl-α-L-arabinopyranoside]: in assay [1], the “Vmax” value worked out at 838.5 U/mg, the Michaelis-Menten constant (Km) was determined as 20.6 mM and the “Kcat/Km (catalytic efficiency)” value is 53.6 mM⁻¹ s⁻¹.
With `O=[N+]([O-])c1ccc(O[C@@H]2OC[C@@H](O)[C@H](O)[C@H]2O)cc1` [PNPX, p-nitrophenyl-β-D-xylopyranoside], the “catalytic efficiency Kcat/Km” value in assay [2] is 1173.4 mM⁻¹ s⁻¹. Besides, in assay [1], the “Vmax” value is reported as 86.0 U/mg, the Michaelis constant (Km) worked out at 0.44 mM and the “Kcat/Km (catalytic efficiency)” value was 259.8 mM⁻¹ s⁻¹.
